# Data published in patent US20140356863A1, “METHODS FOR DETERMINING THE SUSCEPTIBILITY OF A VIRUS TO AN ATTACHMENT INHIBITOR” (BRISTOL-MYERS SQUIBB COMPANY, priority 2011, published 2014).
# What was measured:
# [1] = system: HIV-1 RF strain binding to sCD4-Fc; experiment: immunoassay: virus capture by sCD4-Fc on protein G beads, quantitated by p24 ELISA; conditions: attachment inhibitor 0.5 uM, 15 min room temperature, FIG. 2
# Experimental: (§1) Two laboratory strains of HIV-1 were used in this assay, NL4-3, which is susceptible to the attachment inhibitor, the other is RF, which is insensitive to the action of the attachment inhibitor. The amount of virus present with and without attachment inhibitor (AI) is quantitated by a p24 ELISA.
# (§2) Virus stock was diluted to 1×10^4 TCID50 per ml in RPMI media with 10% fetal bovine serum (FBS). The attachment inhibitor (or DMSO) was added to a final concentration of 0.5 uM and the mixture incubated for 15 min at room temperature. Eighty microliters of sCD4-Fc (a recombinant protein containing the gp120 binding domain of CD4 connected to an immunoglobulin […]) at 5Oug/ml was added and incubated for an additional 30 min, with gentle rocking. Twenty microliters of protein G SEPHAROSE® beads (binding capacity of 200 ug IgG) was added and rocked at 4° C. for an additional 60 min. Unbound virus was removed by washing the beads 4 times with excess PBS. Virus captured on the beads was lysed with 0.5% Triton X-100 and the beads removed by centrifugation. The amount of virus present in the supernatant is quantitated by a p24 ELISA, according to the manufacturer's instructions (PerkinElmer NEK-050).
# [2] = system: HIV-1 NL4-3 binding to sCD4-Fc; experiment: as above; conditions: attachment inhibitor 0.5 uM, 15 min room temperature, FIG. 2
# Experimental: as §1, §2
# [3] = system: HIV-1 NL4-3; experiment: susceptibility of HIV-1 strains to an attachment inhibitor (IC50, inhibition of virus replication); type: cell-based; conditions: Human immunodeficiency virus 1, NL43; HIV-1 laboratory strain NL4-3
# Source text: (§3) As used herein, “ICn” refers to Inhibitory Concentration. It is the concentration of drug in the patient's blood or in vitro needed to suppress the reproduction of a disease-causing virus (such as HIV) by n %. Thus, “IC50” refers to the concentration of an anti-viral agent at which virus replication is inhibited by 50% of the level observed in the absence of the drug.
# (§4) Two laboratory strains of HIV-1 were used in this assay.
# [4] = system: HIV-1 RF strain; experiment: as above; type: cell-based; conditions: Human immunodeficiency virus 1; HIV-1 laboratory strain RF
# Source text: as §3, §4
compound,measurement,setting,value
"COc1cnc(-n2cnc(C)n2)c2[nH]cc(C(=O)C(=O)N3CCN(C(=O)c4ccccc4)CC3)c12 [attachment inhibitor, 1-(4-benzoyl-piperazin-1-yl)-2-[4-methoxy-7-(3-methyl-[1,2,4]triazol-1-yl)-1H-pyrralo[2,3-c]pyridine-3-yl]-ethane-1,2-dione]",amount of virus captured by sCD4-Fc (p24 ELISA) with attachment inhibitor versus DMSO,[1],no significant difference
same,amount of virus captured by sCD4-Fc (p24 ELISA) with attachment inhibitor versus DMSO,[2],much less than when DMSO is used
same,IC50,[3],2.2 ± 0.6 nM
same,IC50,[4],> 2000 nM
